Source: patent publication US4206207A, “Use of 4-carboxy-phthalato(1,2-diaminocyclohexane)-platinum (II) and alkali metal salts thereof with cyclophosphamide in alleviating L1210 murine leukemia” (priority 1978, dated 1980)

Columns and labels:
[1] = test system: adenocarcinoma of the stomach, pancreas, and large bowel; settings: combined FU and radiation vs radiation alone; cited from earlier work
L1210 [2] = experiment: In vitro growth inhibition of L1210 cells; assay type: cell-based, murine
Description: (§1) The ID50 refers to the concentration of test compound required to
(§2) inhibit the growth of either the L1210 or L1210/DDP (NSC119875) resistant

L1210/DDP = experiment: In vitro growth inhibition of L1210/DDP (NSC-119875 resistant) cells; assay type: cell-based, murine
Description: as §1, §2

P388 leukemia = experiment: In vivo activity against P388 leukemia; settings: Days 1,5,9,13, NSC-119875 6.7 mg/kg, NSC-271674 20.0 mg/kg
Description: (§3) Data are expressed as survival in days and as a percentage increase in […]

P388/DDP = experiment: In vivo activity against P388/DDP leukemia with acquired resistance to NSC-119875; settings: Days 1,5,9,13, NSC-119875 6.7 mg/kg, NSC-271674 20.0 mg/kg
Description: P388/DDP refers to a tumor line with acquired resistance to NSC119875.
as §3

B16 melanoma = experiment: Mouse tumor panel: B16 melanoma (ip, survival time); assay type: in vivo; settings: D1-9
Protocol: (§4) NSC-271674 Against a Panel of a Mouse Tumors
(§5) *Survival time (mean or median) assay
(§6) Data are expressed as a percentage of the survival time in days or the
(§7) tumor weights in mg of the treated mice divided by the corresponding
(§8) values for the control mice. All testing was performed using both platinu
(§9) compounds in the same experiment. The criteria for activity are as
(§10) follows: confirmed activity (activity from two separate laboratories) of
(§11) % T/C of 150 or more for survival systems and 10% or less for tumor weigh
(§12) inhibition assays. Lower levels of activity such as a % T/C of 125 for
(§13) survival systems and 42% for tumor weight inhibition assays are considere
(§14) statistically significant.

L1210 [3] = experiment: Mouse tumor panel: L1210 (ip, survival time); assay type: in vivo; settings: D1-9
Protocol: as §4, §5, §6, §7, §8, §9, §10, §11, §12, §13, §14

Lewis lung = experiment: Mouse tumor panel: Lewis lung (iv, survival time); assay type: in vivo; settings: D1-9
Protocol: as §4, §5, §6, §7, §8, §9, §10, §11, §12, §13, §14

CD8F1 mammary = experiment: Mouse tumor panel: CD8F1 mammary (sc, tumor weight inhibition); assay type: in vivo; settings: Q7DX5
Protocol: as §4
(§15) **Tumor weight inhibition assay.
as §6, §7, §8, §9, §10, §11, §12, §13, §14

Colon #38 = experiment: Mouse tumor panel: Colon #38 (sc, tumor weight inhibition); assay type: in vivo; settings: D2,9
Protocol: as §4, §15, §6, §7, §8, §9, §10, §11, §12, §13, §14

[4] = test system: strains of murine leukemia; experiment: Activity against strains of murine leukemia resistant to NSC 119875 (general statement); settings: mouse, in vivo
[5] = Renal Toxicity Screening Protocol, toxicity compared to NSC-119875; assay type: in vivo; settings: for Body Weight Loss score / Clinical Chemistry - Blood Urea Nitrogen score / Clinical Chemistry - Creatinine score / Clinical Chemistry - Serum Glutamic Pyruvic Transaminase score / Hematology - Hematocrit score / Hematology - White Blood Cell score / Histopathology - Gastrointestinal score / Histopathology - Hematopoietic score / Histopathology - Lymphatic score / Histopathology - Renal score: relative to NSC-119875; for TOTAL SCORE: sum of the ten scores
L1210 leukemia = assay type: in vivo, mice; settings: hydroxyurea alone, at least 1000 mg/kg
Protocol: Compound Pt-307 was administered usually in a dosage regimen of 5-60 mg/kg of body weight. This was given as a single dose or on Days 1, 5, and 9 in the standard National Institutes of Health 10-day testing.
CY was utilized at an optimum 50 mg/kg of body weight (range 25-75 mg/kg) preferably given at Day 3 in the 10-day testing. 5-FU was utilized at 75 mg/kg of body weight (range 50-100 mg/kg) at Day 3. HU was used in a high dosage of at least 1000 mg/kg of body weight (range 1000-1500 mg/kg). The 5-FU and the HU were utilized as ternary compositions only with cyclophosphamide and the platinum compound.
Hydroxyurea is utilized in combination therapy at a high dosage of at least 1000 mg/kg of body weight (range 1000-1500 mg/kg).

Row | Structure (SMILES) | Body Weight Loss score [5] | Clinical Chemistry - Blood Urea Nitrogen score [5] | Clinical Chemistry - Creatinine score [5] | Clinical Chemistry - Serum Glutamic Pyruvic Transaminase score [5] | Hematology - Hematocrit score [5] | Hematology - White Blood Cell score [5] | Histopathology - Gastrointestinal score [5] | Histopathology - Hematopoietic score [5] | Histopathology - Lymphatic score [5] | Histopathology - Renal score [5] | TOTAL SCORE [5] | other results
1 | O=c1[nH]cc(F)c(=O)[nH]1 [5-FU, 5-fluorouracil] |  |  |  |  |  |  |  |  |  |  |  | mean survival times (in words) [1]: significantly increased
2 | N.N.[Cl][Pt][Cl] [NSC-119875, cisdichlorodiamino platinum II, reference compound] |  |  |  |  |  |  |  |  |  |  |  | ID50 (concentration required to inhibit the growth of cells by 50 percent) (L1210 [2]): 0.05 µg/mL; ID50 (concentration required to inhibit the growth of cells by 50 percent) (L1210/DDP): 2.50 µg/mL; % ILS (P388 leukemia): 145%; Survival (P388 leukemia): 32.6 days; % ILS (P388/DDP): 41%; Survival (P388/DDP): 15.5 days; % T/C (survival time) at optimal dose (B16 melanoma; B16 first line, optimal dose NSC-119875 2, NSC-271674 6.25 mg/kg/inj): 193%; % T/C (survival time) at optimal dose (B16 melanoma; B16 second line, optimal dose NSC-119875 1, NSC-271674 1.56 mg/kg/inj): 166%; % T/C (survival time) at optimal dose (L1210 [3]; L1210 first line, optimal dose NSC-119875 2, NSC-271674 0.78 mg/kg/inj): 151%; % T/C (survival time) at optimal dose (L1210 [3]; L1210 second line, optimal dose NSC-119875 2, NSC-271674 1.56 mg/kg/inj): 182%; % T/C (survival time) at optimal dose (Lewis lung; Lewis lung first line, optimal dose NSC-119875 2, NSC-271674 3.12 mg/kg/inj): 135%; % T/C (survival time) at optimal dose (Lewis lung; Lewis lung second line, optimal dose NSC-119875 2, NSC-271674 6.25 mg/kg/inj): 177%; % T/C (tumor weight) at optimal dose (CD8F1 mammary; CD8F1 first line, optimal dose NSC-119875 8, NSC-271674 6.25 mg/kg/inj): 0%; % T/C (tumor weight) at optimal dose (CD8F1 mammary; CD8F1 second line, optimal dose NSC-119875 8, NSC-271674 25 mg/kg/inj): 0%; % T/C (tumor weight) at optimal dose (Colon #38; Colon #38 first line, optimal dose NSC-119875 8, NSC-271674 12.5 mg/kg/inj): 42%; % T/C (tumor weight) at optimal dose (Colon #38; Colon #38 second line, optimal dose NSC-119875 16, NSC-271674 50 mg/kg/inj): 11%; activity against NSC 119875-exhausted strains (in words) [4]: has exhausted its activity
3 | N.N.O=C([O-])C1(C(=O)[O-])CCC1.[Pt+2] [NSC-241240, diamine [1,1cyclobutanedicarboxylato (2)0,0']platinum] | 1 | 1 | 1 | 3 | 4 | 3 | 1 | 5 | 1 | 1 | 21 | 
4 | NC1CCCCC1N.O=S(=O)([O-])[O-].[Pt+2] (stereo not shown) [NSC-250427] | 2 | 1 | 1 | 5 | 3 | 3 | 1 | 4 | 2 | 2 | 24 | 
5 | CC(C)N.CC(C)N.[Cl-].[Cl-].[OH-].[OH-].[Pt] [NSC-256927, bisisopropylamine-cis-dichloro-transdihydroxy] | 2 | 1 | 1 | 3 | 4 | 3 | 1 | 4 | 4 | 2 | 25 | 
6 | NC(=O)NO [hydroxyurea] |  |  |  |  |  |  |  |  |  |  |  | efficacy against L1210 (in words) (L1210 leukemia): only minimally effective
